One molecule from paper PMC10046037, “GABRG2 Variants Associated with Febrile Seizures” (Biomolecules, 2023) can be followed below.

Test [1] deals with T1, α1β3γ2 GABAA receptor, γ2R408K variant (Homo sapiens, UniProt P14867+P18507+P28472, R408K).
T1 construct: expressed in transfected cells; host or cells: HEK293T
T1 sequence (P14867 28-456): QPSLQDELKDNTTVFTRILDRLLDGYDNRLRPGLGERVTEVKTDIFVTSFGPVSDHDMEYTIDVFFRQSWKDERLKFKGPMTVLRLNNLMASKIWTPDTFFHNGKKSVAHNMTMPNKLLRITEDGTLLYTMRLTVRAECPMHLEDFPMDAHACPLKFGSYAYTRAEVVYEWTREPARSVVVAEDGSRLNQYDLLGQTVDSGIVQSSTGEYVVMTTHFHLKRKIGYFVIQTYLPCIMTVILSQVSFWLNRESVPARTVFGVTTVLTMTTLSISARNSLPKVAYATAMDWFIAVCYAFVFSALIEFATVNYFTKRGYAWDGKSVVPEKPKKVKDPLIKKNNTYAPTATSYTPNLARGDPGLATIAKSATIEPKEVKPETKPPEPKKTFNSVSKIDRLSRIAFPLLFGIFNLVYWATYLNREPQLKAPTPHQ
T1 sequence (P28472 26-473 isoform P28472-2): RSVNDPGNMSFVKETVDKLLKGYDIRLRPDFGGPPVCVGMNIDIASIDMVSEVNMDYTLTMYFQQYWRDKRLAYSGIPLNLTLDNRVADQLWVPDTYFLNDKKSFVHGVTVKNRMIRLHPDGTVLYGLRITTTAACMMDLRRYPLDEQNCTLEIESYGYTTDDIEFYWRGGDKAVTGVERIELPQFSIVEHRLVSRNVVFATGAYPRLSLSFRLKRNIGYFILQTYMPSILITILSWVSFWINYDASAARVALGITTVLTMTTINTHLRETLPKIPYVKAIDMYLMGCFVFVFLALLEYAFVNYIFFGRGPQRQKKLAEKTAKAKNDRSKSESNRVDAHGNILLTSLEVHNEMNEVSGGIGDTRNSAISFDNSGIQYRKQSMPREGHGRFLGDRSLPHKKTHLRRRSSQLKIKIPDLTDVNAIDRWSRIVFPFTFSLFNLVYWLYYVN
T1 sequence (P18507 40-475 R408K): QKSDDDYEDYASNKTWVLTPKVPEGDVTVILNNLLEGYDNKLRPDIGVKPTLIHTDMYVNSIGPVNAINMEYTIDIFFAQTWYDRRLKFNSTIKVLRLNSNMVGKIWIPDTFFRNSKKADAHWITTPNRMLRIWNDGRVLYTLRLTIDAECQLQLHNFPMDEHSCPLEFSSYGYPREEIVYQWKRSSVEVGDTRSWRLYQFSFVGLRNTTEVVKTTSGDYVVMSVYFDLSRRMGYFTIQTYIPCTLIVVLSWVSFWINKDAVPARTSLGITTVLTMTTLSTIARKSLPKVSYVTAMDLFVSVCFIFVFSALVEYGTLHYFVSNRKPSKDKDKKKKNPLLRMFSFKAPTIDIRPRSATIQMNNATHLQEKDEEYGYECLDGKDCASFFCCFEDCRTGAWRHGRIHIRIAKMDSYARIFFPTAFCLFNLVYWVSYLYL
Description: Automated patch clamp of GABA-elicited currents (SyncroPatch 384PE), γ2R408K. Format: cell-based. Conditions: 1 mM GABA for 5 ms, HEK293T, mean. The protocol: (§1) The coding sequences of human α1 (GABRA1, NM_000806), β3 (GABRB3, NM_021912), and γ2 (GABRG2, NM_198904.2) GABAAR subunits were subcloned into the pcDNA3.1 expression vectors (Invitrogen, Waltham, MA, USA).
(§2) HEK293T cells (ATCC, CRL-11268) were cultured at 37 °C in a humidified 5% CO2 incubator and maintained in Dulbecco’s modified Eagle’s medium (Invitrogen) supplemented with 10% fetal bovine serum (Life Technologies, Carlsbad, CA, USA), and 100 IU/mL of penicillin/streptomycin (Life Technologies). For the expression experiments, 4 × 10^5 cells were transfected using polyethylenimine (PEI) reagent (40 kD, Polysciences, Warrington, PA, USA) at a DNA: to transfection reagent ratio of 1:2.5 and harvested 36 h after transfection. To express WT and variant α1β3γ2 receptors, a total of 3 µg of α1, β3, and γ2 (WT or mutant) subunit cDNAs were transfected at a ratio of 1:1:1 into 60 mm culture dishes. For the mock-transfected condition, an empty pcDNA3.1 vector was added for a final cDNA transfection amount of 3 μg. For the electrophysiology experiments, 2.5 × 10^5 cells were plated in 100 mm culture dishes and transfected after 24 h with 3 μg of cDNA of each α1, β3, γ2 (wild-type or mutant) subunit, using X-tremeGENE HP DNA transfection Reagent (Roche Diagnostics, Basel, Switzerland), following the manufacturer’s protocol. Recordings were obtained forty-eight hours after transfection.
Whole-cell patch clamp recordings were conducted according to the manufacturer’s standard procedure for the SyncroPatch 384 [31]. […] Using PatchControl 384, electrophysiological parameters, such as seal resistance, capacitance, and series resistance, were determined for each well after the application of a test pulse, and subsequently monitored over time. […] The currents were normalized to the maximal response of each well, and the concentration–response curves were calculated from single-point additions. The EC50 values for each variant or wild-type receptor were calculated across multiple wells for each experimental condition.
In general terms: Patch clamp records ionic current or voltage across a cell membrane.

For test [2], the target named is T2, α1β3γ2 GABAA receptor, wild-type (WT) γ2 subunit (Homo sapiens, UniProt P14867+P28472).
T2 construct: expressed in transfected cells; host or cells: HEK293T
Briefly: Automated patch clamp of GABA-elicited currents (SyncroPatch 384PE), WT receptor. Format: cell-based. Conditions: mean. The protocol: as §1, §2
Whole-cell patch clamp recordings were conducted according to the manufacturer’s standard procedure for the SyncroPatch 384 [31]. Whole-cell voltage-clamp recordings were performed at room temperature on HEK293T cells 48 h after transfection with GABAAR subunits, using the SyncroPatch 384PE (Nanion Technologies, Munich, Germany). Cells, at a concentration of 400,000 cells/mL, were harvested in suspension in external solution containing 140 mM of NaCl, 2 mM of CaCl2, 4 mM of KCl, 1 mM of MgCl2, 5 mM of glucose, and 10 mM of HEPES (pH 7.4 with NaOH, 298 mOsm). The cells were loaded in a multi-hole (4 holes per well) 384-well Nanion patch clamp (NPC) chip with a thick borosilicate glass bottom and an average resistance pore size of […]. Built-in electrophysiological protocols were used, and the data were digitized using PatchControl 384 (Nanion Technologies) application. Using PatchControl 384, electrophysiological parameters, such as seal resistance, capacitance, and series resistance, were determined for each well after the application of a test pulse, and subsequently monitored over time. […] The currents were normalized to the maximal response of each well, and the concentration–response curves were calculated from single-point additions. The EC50 values for each variant or wild-type receptor were calculated across multiple wells for each experimental condition.

T2 sequence (P18507 40-475 partner, one chain of several): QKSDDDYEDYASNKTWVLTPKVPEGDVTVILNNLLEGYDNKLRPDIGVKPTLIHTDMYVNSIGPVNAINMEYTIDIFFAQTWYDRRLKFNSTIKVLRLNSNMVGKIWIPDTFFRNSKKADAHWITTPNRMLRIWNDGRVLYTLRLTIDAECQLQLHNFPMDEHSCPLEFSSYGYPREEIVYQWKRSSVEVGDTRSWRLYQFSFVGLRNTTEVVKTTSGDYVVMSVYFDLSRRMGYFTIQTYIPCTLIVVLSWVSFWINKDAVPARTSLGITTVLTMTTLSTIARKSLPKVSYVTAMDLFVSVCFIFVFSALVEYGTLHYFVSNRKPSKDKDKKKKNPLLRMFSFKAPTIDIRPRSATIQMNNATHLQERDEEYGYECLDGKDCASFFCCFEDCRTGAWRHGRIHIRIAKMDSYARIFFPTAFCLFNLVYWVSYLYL

`NCCCC(=O)O` [GABA, γ-aminobutyric acid]: the Deactivation in test [1] (-80 mV) stood at 165.4 ms; in test [2] (1 mM GABA for 5 ms, HEK293T, -80 mV) it was 199.9 ms. Further, the “IMAX (maximal GABA-evoked peak current)” value was 0.22 nA in test [1] and 2.00 nA in test [2] (1 mM GABA for 5 ms, HEK293T). For the same molecule, the “Rise Time” value in test [1] (10–90% rise time) is recorded as 40.23 ms; in test [2] (10–90% rise time, 1 mM GABA for 5 ms, HEK293T), 13.67 ms. The “IMAX variant/IMAX WT” value in test [2] (1 mM GABA) turned out to be 100.00%.
